# ChEMBL document CHEMBL1201862, “PubChem BioAssay data set” (2004)
#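 The compound was tested at five concentrations on cells cultured in 96-well plates, with a 48-hour exposure period. GI50 = concentration required for 50% inhibition of growth.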 The source made the active and inactive calls. Cut-off read from the data, not from the text of the source: active = GI50 up to about 1.1 µM and inactive = higher.
# Assays:
# Assay in all cases: DTP human tumour cell line panel, 48 h
# SNB-75 = tested on: SNB-75
# OVCAR-3 = tested on: OVCAR-3
# 786-0 = tested on: 786-0
# A498 = tested on: A498
# MDA-MB-231 = tested on: MDA-MB-231
# A549 = tested on: A549
# HCT-116 = tested on: HCT-116
# OVCAR-4 = tested on: OVCAR-4
# NCI-H460 = tested on: NCI-H460
# RXF 393 = tested on: RXF 393
# U-251 = tested on: U-251
# IGROV-1 = tested on: IGROV-1
# K562 = tested on: K562
# MDA-N = tested on: MDA-N
# HCC 2998 = tested on: HCC 2998
# EKVX = tested on: EKVX
# MOLT-4 = tested on: MOLT-4
# HL-60 = tested on: HL-60
# M14 = tested on: M14
# SN12C = tested on: SN12C
Structure (SMILES),GI50 (SNB-75),GI50 (OVCAR-3),GI50 (786-0),GI50 (A498),GI50 (MDA-MB-231),GI50 (A549),GI50 (HCT-116),GI50 (OVCAR-4),GI50 (NCI-H460),GI50 (RXF 393),GI50 (U-251),GI50 (IGROV-1),GI50 (K562),GI50 (MDA-N),GI50 (HCC 2998),GI50 (EKVX),GI50 (MOLT-4),GI50 (HL-60),GI50 (M14),GI50 (SN12C)
CCOC(=O)[C@H](O)[C@@H](O)C(=O)NCc1ccc(C(=O)c2ccccc2)cc1,> 100 µM (inactive),> 100 µM (inactive),> 100 µM (inactive),> 100 µM (inactive),> 100 µM (inactive),> 100 µM (inactive),> 100 µM (inactive),> 100 µM (inactive),> 100 µM (inactive),> 100 µM (inactive),> 100 µM (inactive),> 100 µM (inactive),> 100 µM (inactive),> 100 µM (inactive),> 100 µM (inactive),> 100 µM (inactive),> 100 µM (inactive),> 100 µM (inactive),> 100 µM (inactive),> 100 µM (inactive)
O=C1NC(=N/c2ccccc2)/C(=N\c2ccccc2)N1c1ccccc1,16.3 µM (inactive),–,15.5 µM (inactive),17.2 µM (inactive),20.8 µM (inactive),15.9 µM (inactive),17.7 µM (inactive),18.4 µM (inactive),16.5 µM (inactive),15 µM (inactive),15.6 µM (inactive),16.6 µM (inactive),26.5 µM (inactive),12.3 µM (inactive),16.9 µM (inactive),16.7 µM (inactive),25.9 µM (inactive),26.2 µM (inactive),–,16.4 µM (inactive)
COc1ccccc1OCC(=N/NC(=O)c1ccncc1)/N=C/c1cccnc1,36.5 µM (inactive),> 100 µM (inactive),> 100 µM (inactive),> 100 µM (inactive),> 100 µM (inactive),> 100 µM (inactive),> 100 µM (inactive),> 100 µM (inactive),> 100 µM (inactive),> 100 µM (inactive),> 100 µM (inactive),> 100 µM (inactive),> 100 µM (inactive),> 100 µM (inactive),> 100 µM (inactive),> 100 µM (inactive),> 100 µM (inactive),> 100 µM (inactive),> 100 µM (inactive),–
COc1ccccc1C1C2=C(COC2=O)Oc2cc3c(cc21)OCO3 (stereo not drawn),3.51 µM (inactive),2.55 µM (inactive),3.18 µM (inactive),2.23 µM (inactive),3.45 µM (inactive),3.87 µM (inactive),1.87 µM (inactive),11.7 µM (inactive),3.64 µM (inactive),1.69 µM (inactive),3.66 µM (inactive),2.53 µM (inactive),0.706 µM (active),0.245 µM (active),3.23 µM (inactive),2.29 µM (inactive),1.59 µM (inactive),0.44 µM (active),1.4 µM (inactive),3.82 µM (inactive)
O=[N+]([O-])C(C(Cl)=C(Cl)Cl)=C(n1nnc2ccccc21)n1nnc2ccccc21,> 44.3 µM (inactive),24.9 µM (inactive),13.2 µM (inactive),> 57.9 µM (inactive),20.4 µM (inactive),48.5 µM (inactive),20.5 µM (inactive),36.9 µM (inactive),51.6 µM (inactive),20.2 µM (inactive),36.1 µM (inactive),36.6 µM (inactive),11.5 µM (inactive),23.9 µM (inactive),49.1 µM (inactive),> 59.3 µM (inactive),9.33 µM (inactive),3.94 µM (inactive),30.7 µM (inactive),22.6 µM (inactive)
C/C(=N\Nc1nc2ccccc2[nH]1)c1cc2ccccc2cn1,0.317 µM (active),–,0.048 µM (active),0.0993 µM (active),0.0261 µM (active),0.0775 µM (active),0.0158 µM (active),0.0443 µM (active),0.0661 µM (active),0.208 µM (active),0.0318 µM (active),< 0.0175 µM (active),0.0159 µM (active),0.171 µM (active),1.45 µM (inactive),< 0.0183 µM (active),0.0117 µM (active),< 0.01 µM (active),< 0.01 µM (active),< 0.01 µM (active)
Cc1cc(S(=O)(=O)N=C2N(Cc3ccccc3)CCN2Cc2ccccc2)c(S)cc1Cl,69.8 µM (inactive),> 100 µM (inactive),> 100 µM (inactive),> 100 µM (inactive),> 100 µM (inactive),> 100 µM (inactive),> 100 µM (inactive),> 100 µM (inactive),56.1 µM (inactive),78.3 µM (inactive),54.8 µM (inactive),> 100 µM (inactive),> 100 µM (inactive),> 100 µM (inactive),> 100 µM (inactive),> 100 µM (inactive),> 100 µM (inactive),> 100 µM (inactive),> 100 µM (inactive),> 100 µM (inactive)
O=CC(=C(I)I)c1ccccc1,2.64 µM (inactive),1.98 µM (inactive),2.14 µM (inactive),21.6 µM (inactive),2.87 µM (inactive),20.2 µM (inactive),0.855 µM (active),2.03 µM (inactive),17.1 µM (inactive),1.88 µM (inactive),3.58 µM (inactive),4.06 µM (inactive),0.264 µM (active),2.04 µM (inactive),10.5 µM (inactive),11.5 µM (inactive),0.289 µM (active),0.0635 µM (active),1.75 µM (inactive),2.28 µM (inactive)
COc1cc(C2c3cc4c(cc3OC(NCCO)C2C)OCO4)cc(OC)c1OC (stereo not drawn),1.12 µM (inactive),0.244 µM (active),1.8 µM (inactive),0.325 µM (active),1.6 µM (inactive),0.762 µM (active),0.364 µM (active),12.7 µM (inactive),0.409 µM (active),0.426 µM (active),0.406 µM (active),0.687 µM (active),0.195 µM (active),0.401 µM (active),0.824 µM (active),13.1 µM (inactive),0.489 µM (active),0.309 µM (active),0.27 µM (active),0.658 µM (active)
NNC(=O)CSc1nnc(CCCCCCCCc2nnc(SCC(=O)NN)o2)o1,> 100 µM (inactive),–,> 100 µM (inactive),> 100 µM (inactive),> 100 µM (inactive),> 100 µM (inactive),> 100 µM (inactive),> 100 µM (inactive),> 100 µM (inactive),> 100 µM (inactive),> 100 µM (inactive),> 100 µM (inactive),> 100 µM (inactive),> 100 µM (inactive),> 100 µM (inactive),> 100 µM (inactive),> 100 µM (inactive),> 100 µM (inactive),> 100 µM (inactive),> 100 µM (inactive)
CC(NP(=O)(c1ccccc1)c1ccccc1)c1ccccc1 (stereo not drawn),> 100 µM (inactive),> 100 µM (inactive),> 100 µM (inactive),> 100 µM (inactive),> 100 µM (inactive),> 100 µM (inactive),> 100 µM (inactive),> 100 µM (inactive),> 100 µM (inactive),> 100 µM (inactive),> 100 µM (inactive),> 100 µM (inactive),> 100 µM (inactive),> 100 µM (inactive),> 100 µM (inactive),> 100 µM (inactive),> 100 µM (inactive),> 100 µM (inactive),> 100 µM (inactive),> 100 µM (inactive)
O=C(O)C1[C@@H](C(=O)O)C1(Br)CBr (stereo partly drawn),> 100 µM (inactive),> 100 µM (inactive),> 100 µM (inactive),> 100 µM (inactive),> 100 µM (inactive),> 100 µM (inactive),> 100 µM (inactive),> 100 µM (inactive),> 100 µM (inactive),> 100 µM (inactive),> 100 µM (inactive),> 100 µM (inactive),> 100 µM (inactive),> 100 µM (inactive),> 100 µM (inactive),> 100 µM (inactive),> 100 µM (inactive),> 100 µM (inactive),> 100 µM (inactive),> 100 µM (inactive)
COc1c(CC=C(C)C)c(O)c(C(CC(C)C)c2c(O)c(CC=C(C)C)c(O)c(C(C)=O)c2O)c(O)c1C(C)=O (stereo not drawn),1.69 µM (inactive),1.15 µM (inactive),1.63 µM (inactive),0.0843 µM (active),1.64 µM (inactive),1.8 µM (inactive),0.325 µM (active),1.44 µM (inactive),0.589 µM (active),0.427 µM (active),0.703 µM (active),1.7 µM (inactive),0.29 µM (active),2.16 µM (inactive),0.537 µM (active),1.04 µM (active),0.644 µM (active),0.767 µM (active),1.43 µM (inactive),0.469 µM (active)
C=C1C[C@H]2C=Nc3cc(OCCCOc4cc5c(cc4OC)C(=O)N4CC(=C)C[C@H]4C=N5)c(OC)cc3C(=O)N2C1 [SJG-136],< 0.01 µM (active),0.0172 µM (active),< 0.01 µM (active),0.0146 µM (active),< 0.0108 µM (active),0.0157 µM (active),0.0103 µM (active),0.0306 µM (active),< 0.01 µM (active),< 0.0107 µM (active),< 0.01 µM (active),< 0.01 µM (active),< 0.01 µM (active),0.0143 µM (active),0.0126 µM (active),–,0.000136 µM (active),< 0.01 µM (active),–,< 0.01 µM (active)
